How the values were obtained:
human 17β-HSD1 = test system: T1, human 17β-HSD1; assay: 17β-HSD1 enzyme activity in cell lysates (estrone to estradiol); type: biochemical; settings: 1 μM, 200 nM estrone
T1 construct: expressed in transfected cells; host or cells: HEK-293 (transient)
Description: (§1) Human embryonic kidney (HEK-293) cells either stably expressing human 11β-HSD1 and H6PDH (HHH7 clone, [38]) or 11β-HSD2 (AT8 clone, [39]), or transiently expressing human 17β-HSD1 or 17β-HSD2, were cultivated in Dulbecco’s modified Eagle medium (DMEM) containing 4.5 g/L glucose, 10% fetal bovine serum, 100 U/mL penicillin, 0.1 mg/mL streptomycin, 1 × MEM nonessential amino acids, and 10 mM HEPES buffer, pH 7.4. Cells were washed with phosphate-buffered saline (PBS), centrifuged for 4 min at 150 × g, and the cell pellets were snap frozen on dry ice and stored at −80°C until further use.
(§2) Cell lysates were resuspended in TS2 buffer (100 mM NaCl, 1 mM EGTA, 1 mM EDTA, 1 mM MgCl2, 250 mM sucrose, 20 mM Tris-HCl, pH 7.4), followed by sonication at 4°C using a Hielscher UP50H ultrasonic processor (0.3 cycle, 20 amplitude %, 20 impulses; Hielscher Ultrasonics GmbH, Teltow Germany). Cell lysates, reaction mixture, and either vehicle (DMSO) or inhibitor were incubated for 10 min at 37°C in a final volume of 22.2 μL. The solvent concentration was 0.1%. […] 11β-HSD2 activity was measured in the presence of 50 nM cortisol and 500 μM NAD^+. An amount of 50 nCi of radiolabeled tracer substrate was included in the experiments. […] The bands of the corresponding steroids were excised, followed by scintillation counting and calculation of the amount of substrate conversion. Data were obtained from at least three independent measurements. Glycyrrhetinic acid (CTRL 1) was used as positive control for 11β-HSD1 and 11β-HSD2 inhibition, apigenin (CTRL 2) for 17β-HSD1, and compound 22 from Vuorinen et al. [40](CTRL 3) for 17β-HSD2 inhibition.

human skin biopsies [1] = assay: Dermal collagen III content in UV exposed ex vivo human skin biopsies (anti-collagen III antibody)
Description: (§3) Ex vivo skin experiments were performed as contract research by Cutech Biotechnology following the Helsinki declaration and who obtained permission as well as informed consent from the patient (Padova, Italy). Human skin from abdominal plastic surgery of a donor was used. Skin samples were cut in pieces of approximately 8 × 3 mm (diameter × thickness) and cultured in an air-liquid interface in a perforated ring of stainless steel in contact with culture medium (modified Williams’ E medium, Sigma Aldrich) up to day 6. The culture medium was renewed on day 0 and day 3. The test compounds were applied topically and renewed daily. The application was performed as follows: skin biopsies were gently cleaned with a cotton pad and 4 μL of 10 μM or 100 μM test compound were applied on top of each piece and covered with a 6 mm (diameter) delivery membrane (CoTran 9728 Controlled Caliper Ethylene Vinyl Acetate Membrane, 3M, St. Paul, MN, USA).
Skin biopsies were subjected to UV irradiation using a BIO-SUN system (Vilber Lourmat, Eberhardzell, Germany). The system had the following specifications: Lamp wave length: UVB 312 nm (range 280–320 nm) and UVA 365 nm (range 355–375 nm), range of measure (irradiance): accuracy and linearity ± 0.2%, range of programmed energy: 0.1 to 99.99 J/cm^2, intensity: UVA (365 nm) 5 mW/cm^2, UVB (312 nm) 3 mW/cm^2, UVA + UVB: 5.6 + 3.2 mW/cm^2, respectively. The selected UV irradiation intensities were 40% and 80% of the Biological Effective Dose (BED) of 7.5 J/cm^2 UV daylight as described by Del Bino et al.. UV 40% BED = 3.0 J/cm^2 (= 0.1 J/cm^2 UVB + 2.9 J/cm^2 UVA); UV 80% = 6.0 J/cm^2 (= 0.2 J/cm^2 UVB + 5.8 J/cm^2 UVA).
Furthermore, in a preliminary set of experiments, skin biopsies were UV irradiated at 3.0 J/cm^2 and 6.0 J/cm^2 and treated topically with 4 μL of 10 μM or 100 μM of the respective inhibitor, followed by determination of collagen III content using a mouse monoclonal anti-collagen III antibody (Sigma Aldrich).

[2] = test system: T2, recombinant human 11β-HSD2; assay: 11β-HSD2 enzyme activity in cell lysates (cortisol to cortisone); type: biochemical; settings: 1 μM compound; lysates of HEK-293 cells; 50 nM cortisol
T2 construct: expressed in transfected cells
Description: as §1, §2

human 11β-HSD1 = test system: T3, human 11β-HSD1; assay: 11β-HSD1 activity assay in intact HEK-293 cells co-expressing 11β-HSD1 and H6PDH; type: cell-based; settings: 100 nM and 1 μM compound; intact HHH7 cells; 200 nM cortisone; 30 min
T3 construct: expressed in transfected cells
Description: HEK-293 cells co-expressing 11β-HSD1 and H6PDH were seeded in poly-L-lysine coated 96 well-plates (30’000 cells/well) and cultivated in DMEM. At 24 h post-seeding, the cells were washed with charcoal-treated serum-free DMEM (cDMEM) and incubated for 3 h in 100 μL cDMEM. Then, the medium was aspirated and replaced by 30 μL cDMEM. […] The reactions were terminated after 30 min of incubation, followed by analysis of substrate conversion as described above. Data were obtained from at least three independent measurements.

human 17β-HSD2 = test system: T4, human 17β-HSD2; assay: 17β-HSD2 enzyme activity in cell lysates (estradiol to estrone); type: biochemical; settings: 1 μM, 200 nM estradiol
T4 construct: expressed in transfected cells; host or cells: HEK-293 (transient)
Description: as §1, §2

human skin biopsies [3] = assay: Dermal total collagen content in ex vivo human skin biopsies (Picrosirius Red); settings: 10 μM or 100 μM inhibitor topically, 6 days; 100 nM cortisone for 5 days
Description: as §3
Skin viability was assessed in two skin biopsies after 6 days of treatment using methylthiazolyldiphenyl‐tetrazolium bromide (MTT, Sigma Aldrich) staining. Total dermal collagen in skin sections was semi-quantitatively evaluated by Picrosirius Red histochemical staining (using Picric Acid, Fast Green FCF and Direct Red from Sigma Aldrich) that dyes collagen fibers in purple-red. […] The evaluation was performed by estimating both color intensity and distribution using IMAGE J (NIH) analysis software, allowing to obtain a semi-quantitative evaluation of dermal collagen (collagen score). Two slides of each skin sample were processed by image acquisition and related analysis (i.e. 12 images for each treatment).

[4] = biological target: T5, recombinant human 11β-HSD1 (Homo sapiens, UniProt P28845); assay: 11β-HSD1 enzyme activity in cell lysates (cortisone to cortisol, radiolabeled tracer, TLC); type: biochemical; settings: for 11β-HSD1 Residual activity, % of control at 100 nM: 100 nM compound; for 11β-HSD1 Residual activity, % of control at 100 nM / 11β-HSD1 Residual activity, % of control at 1 μM: lysates of HEK-293 cells, 200 nM cortisone, mean of three experiments; for 11β-HSD1 Residual activity, % of control at 1 μM: 1 μM compound
T5 construct: expressed in transfected cells
T5 sequence (P28845 whole entry): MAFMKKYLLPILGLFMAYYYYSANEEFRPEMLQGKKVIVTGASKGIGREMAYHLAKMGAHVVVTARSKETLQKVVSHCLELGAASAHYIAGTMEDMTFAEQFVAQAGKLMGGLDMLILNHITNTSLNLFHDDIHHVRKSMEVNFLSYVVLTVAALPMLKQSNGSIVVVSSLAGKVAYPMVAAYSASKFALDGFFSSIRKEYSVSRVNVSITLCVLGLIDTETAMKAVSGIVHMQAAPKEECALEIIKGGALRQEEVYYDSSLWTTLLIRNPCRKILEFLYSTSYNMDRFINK
Description: as §1, §2

endogenous 11β-HSD1 = biological target: T6, endogenous 11β-HSD1 (Homo sapiens, UniProt P28845); assay: 11β-HSD1-dependent cortisol formation in intact primary human keratinocytes; type: cell-based; settings: for inhibition of cortisol formation (in words): 1 μM compound, primary human keratinocytes, 1 μM cortisone, 24 h; for IC50: read-out: estimated IC50 of cortisol formation
T6 construct: intact primary human keratinocytes expressing endogenous 11β-HSD1; host or cells: primary human epidermal keratinocytes
T6 sequence (P28845 whole entry): as above
Description: Human epidermal keratinocytes obtained from CELLnTEC advanced Cell Systems (Berne, Switzerland) were maintained in CnT-Prime medium (http://cellntec.com/products/cnt-pr/#datasheet) at 37°C. Cells were subcultivated before reaching confluence. After reaching 90% of confluence, the keratinocytes were washed twice with PBS prior to change to cortisol-free CnT-Prime medium (custom-made by CELLnTEC). […] Compound CAS 1009373-58-3 (CTRL 4, Merck Millipore, Darmstadt, Germany) was used as positive control. After 24 h cell culture supernatants were collected and the amount of cortisol produced was measured on a Mulstiskan Ascent plate reader (MTX Lab Systems, Bradenton, FL) using the Cortisol Parameter Assay Kit (R&D Systems, Minneapolis, MN) following the instructions by the manufacturer. Cell viability was assessed using PrestoBlue® Cell Viability Reagent (Invitrogen, Carlsbad, CA) according to the manufacturer’s instructions.

[5] = 100 μM, 6.0 J/cm^2 UV irradiation

Row | SMILES | inhibition of 17β-HSD1 (in words) (human 17β-HSD1) | collagen III vs UV treated vehicle control (in words) (human skin biopsies [1]; 10 μM, UV irradiated biopsies) | collagen III vs UV treated vehicle control (in words) (human skin biopsies [1]; [5]) | 11β-HSD2 Residual activity, % of control at 1 μM [2] | inhibition of 11β-HSD1 in intact cells (in words) (human 11β-HSD1) | inhibition of 17β-HSD2 (in words) (human 17β-HSD2) | effect on cortisone-induced collagen decrease (in words) (human skin biopsies [3]) | IC50 [4] | 11β-HSD1 Residual activity, % of control at 100 nM [4] | 11β-HSD1 Residual activity, % of control at 1 μM [4] | inhibition of cortisol formation (in words) (endogenous 11β-HSD1) | IC50 (endogenous 11β-HSD1) | melting point | collagen III vs UV treated vehicle control (in words) (human skin biopsies [1]; 100 μM, 3.0 J/cm^2 UV irradiation, p<0.01) | effect on UV-mediated decrease in collagen III levels (in words) (human skin biopsies [1]; topical 10 μM or 100 μM, 3.0 and 6.0 J/cm^2 UV, preliminary)
1 | Cc1ccc(-c2cccc(C(=O)N3CCC(C)CC3)c2)cn1 [2b, (4-Methylpiperidin-1-yl)(3-(6-methylpyridin-3-yl)phenyl)methanone] | selective | did not result in significant changes | significantly higher collagen III levels | > 90 % of control | almost completely inhibited | selective | prevented the cortisone-induced collagen decrease | 42.2 nM | 36 % of control | 5 % of control | almost completely inhibited | ≤ 100 nM | – | – | –
2 | Cc1ccc(-c2cccc(C(=O)N3CCCCCC3)c2)cc1F [3e, Azepan-1-yl(3’-fluoro-4’-methyl-[1,1’-biphenyl]-3-yl)methanone] | selective | – | significantly higher collagen III | > 90 % of control | almost completely inhibited | selective | prevented the cortisone-induced collagen decrease | 34.5 nM | 19 % of control | 1 % of control | almost completely inhibited | ≤ 100 nM | 106 to 108 °C | significantly higher collagen III | prevented the decrease in collagen III levels
3 | O=C(c1cccc(-c2ccccc2)c1)N1CCCCCC1 [12e, [1,1’-Biphenyl]-3-yl(azepan-1-yl)methanone] | selective | did not result in significant changes | significantly higher collagen III levels | > 90 % of control | almost completely inhibited | selective | prevented the cortisone-induced collagen decrease | 23.4 nM | 21 % of control | – | almost completely inhibited | ≤ 100 nM | – | – | –
